{"source": "paper PMC8622278", "about": "“The Effects of Structural Alterations in the Polyamine and Amino Acid Moieties of Philanthotoxins on Nicotinic Acetylcholine Receptor Inhibition in the Locust, Schistocerca gregaria” (Molecules, 2021)", "key": {"locust neuron nAChR": {"tested_on": "locust neuron nAChR", "experiment": "Whole-cell patch-clamp of locust mushroom body neurons, ACh-evoked currents", "type": "cell-based, Schistocerca gregaria", "conditions": "for Fold increase in potency vs PhTX-343, 1 s current / Fold increase in potency vs PhTX-343, peak current: IC50 PhTX-343 / IC50 analogue; for Cells in which potentiation of the ACh response was observed: co-application of 0.01 and 0.1 μM", "experimental": "Neuronal cells were harvested through dissection of adult desert locusts (Shistocerca gregaria) purchased from livefoods.com. Following 10 min of cold anaesthesia at 4 °C, the locusts were submerged in 70% ethanol and their heads removed by decapitation with dissection scissors. The front of the head capsule was removed to expose the mushroom body of the brain, which was extracted, cut into small pieces, and placed into a 1 mL Eppendorf tube with 200 μL of Rinaldi’s saline (135 mM NaCl, 25 mM KCl, 0.4 mM NaHCO3, 0.5 mM glucose, and 5 mM HEPES adjusted to pH 7.2 with NaOH) containing 0.5 mg/mL dispase and 2 mg/mL collagenase. After 15 min incubation at 36.5 °C, neurons were centrifuged at 800× g for 1 min at room temperature to form a pellet. The supernatant was removed and replaced with 200 μL locust culture medium (5:4 − DMEM + 10% FCS + 2 mM Gln: Schneider’s insect medium + 10 IU/mL penicillin + 20 μg/mL streptomycin). A total of 200 μL of culture medium was gently pipette-mixed with the pellet to create a suspension of cells, which were spread over poly-L-lysine-coated glass coverslips (5 × 20 mm) in 35 mm Petri dishes containing 2 mL locust culture medium. Petri dishes were incubated overnight at 36.5 °C in a 5% CO2 atmosphere.\nExperiments were conducted 16–24 h after neuron dissociation. Coverslips covered in locust neurons were placed into a patch-clamp perfusion chamber, and were then constantly perfused with locust saline solution (180 mM NaCl, 10 mM KCl, 2 mM CaCl2, 10 mM HEPES, and pH 7.2 with NaOH). Borosilicate glass patch pipettes (1B150F-4, World Precision Instruments, Hertfordshire, UK), pulled to ~5–10 MΩ with a P-97 Flaming/Brown micropipette puller (Sutter Instrument Co., Novato, CA, USA), were filled with caesium pipette solution (140 mM CsCl, 1 mM CaCl2, 1 mM MgCl2, 11 mM EGTA, and 5 mM HEPES, pH 7.2) and placed in a patch pipette holder mounted on the patch-clamp amplifier head stage. Patch-clamped cells were clamped at a holding potential (VH) of −75 mV. Whole-cell currents were monitored by using an Axopatch 200A patch-clamp amplifier (Molecular Devices, San Jose, CA, USA) and recorded with WinWCP V4.5.7 software (Dr John Dempster, Institute of Pharmacy & Biomedical Sciences, University of Strathclyde, Glasgow, UK). Test compounds were focally applied to cells as 1 s pulses using a DAD-12 superfusion system (ALA Scientific Instruments, Farmingdale, NY, USA). Between each application of test compounds, clamped cells were washed for 1 min with locust saline. […]\nA total of 100 μM acetylcholine (ACh) was applied to cells twice prior to (control) and once after the co-application of 100 μM ACh and PhTX analogue. Peak current and current after 1 s of application were measured using WinWCP, and then the percentage of control response values were generated by normalising responses to ACh + PhTX co-application to the ACh-only control response. GraphPad Prism 9 (GraphPad Software, San Diego, CA, USA) was used for data analysis, graph plotting, curve fitting, and statistical analysis. To estimate the ACh EC50, concentration–response data were fit by the Hill equation:(1) % maximum response=100/(1+10^(LogEC50−X)S) where X is the log of the ACh concentration and S is the Hill slope. Concentration–inhibition curves were generated by plotting the mean and standard error of the normalised current measurements against log antagonist concentration, and then IC50 values were estimated by fitting a non-linear regression curve by using the equation:(2) % control response=100/(1+10^(X−LogIC50)S) where X is the log of the concentration of the PhTX analogue and S is the Hill slope."}, "rat α3β4 nAChRs": {"tested_on": "rat α3β4 nAChRs", "conditions": "rat subtype α3β4; cited from earlier work"}, "human muscle-type nAChRs": {"tested_on": "human muscle-type nAChRs", "set-up": "method as in PMID 16892364", "conditions": "cited from earlier work"}, "rat α4β2 nAChRs": {"tested_on": "rat α4β2 nAChRs", "conditions": "rat subtype α4β2; cited from earlier work"}, "[1]": {"conditions": "inhibition of 100 μM ACh-evoked current after 1 s of activation, VH −75 mV, read-out: IC50 (95% CI), 1 s Current"}, "[2]": {"conditions": "inhibition of 100 μM ACh-evoked peak current, VH −75 mV, read-out: IC50 (95% CI), Peak Current"}, "[3]": {"conditions": "at both 0.01 and 0.1 μM, cells showing potentiation, 100 μM ACh"}}, "note": "pEC50, pIC50: −log10 of the molar value. Several values for one entry are separate records, joined by “and”; a condition that tells them apart may be missing. Equal values may be shown once. Read-outs that look alike come from different tables or passages of the source.", "data": [{"smiles": "CC(=O)OCC[N+](C)(C)C", "note": "[ACh, acetylcholine]", "values": [{"measurement": "pEC50", "setting": "locust neuron nAChR; peak response, n = 11, read-out: EC50 of ACh-evoked whole-cell current", "result": 4.69}]}, {"smiles": "CCCC(=O)N[C@@H](Cc1ccc(O)cc1)C(=O)NCCCCCCCCCCCCN", "note": "[PhTX-12]", "values": [{"measurement": "Fold increase in potency vs PhTX-343, 1 s current", "setting": "locust neuron nAChR", "result": "6.2 fold and ~ 6 fold"}, {"measurement": "Fold increase in potency vs PhTX-343, peak current", "setting": "locust neuron nAChR", "result": 34, "unit": "fold"}, {"measurement": "pIC50", "setting": "locust neuron nAChR; [1]", "result": 6.89}, {"measurement": "pIC50", "setting": "locust neuron nAChR; [2]", "result": 5.93}]}, {"smiles": "COc1cc2c3cc1Oc1cc(ccc1O)C[C@@H]1c4c(cc(OC)c(O)c4Oc4ccc(cc4)C[C@@H]3N(C)CC2)CC[N+]1(C)C", "note": "[d-tubocurarine, reference compound]", "values": [{"measurement": "pIC50", "setting": "locust neuron nAChR; co-applied 0.1 to 100 μM with 100 μM ACh, n = 11, read-out: IC50 for inhibition of 100 μM ACh current", "result": 5.56}, {"measurement": "Inhibition at the highest concentration", "setting": "locust neuron nAChR; highest concentration (100 μM) co-applied with 100 μM ACh", "result": "complete inhibition"}]}, {"smiles": "CN1CCC[C@H]1c1cccnc1", "note": "[nicotine, reference compound]", "values": [{"measurement": "Whole-cell current response compared with 100 μM ACh", "setting": "locust neuron nAChR; 100 μM, same neuron", "result": "smaller than that seen for ACh"}]}, {"smiles": "CCCC(=O)N[C@@H](CC1CCCCC1)C(=O)NCCCNCCCCNCCCN", "note": "[Cha-PhTX-343]", "values": [{"measurement": "Potentiation, % of the ACh control response, peak and 1 s current similar", "setting": "locust neuron nAChR; 0.01 μM, cells showing potentiation, 100 μM ACh", "result": "about 145%"}, {"measurement": "Potentiation, % of the ACh control response, peak and 1 s current similar", "setting": "locust neuron nAChR; 0.1 μM, cells showing potentiation, 100 μM ACh", "result": "~125", "unit": "%"}, {"measurement": "Fold increase in potency vs PhTX-343, 1 s current", "setting": "locust neuron nAChR", "result": 1.8, "unit": "fold"}, {"measurement": "Fold increase in potency vs PhTX-343, peak current", "setting": "locust neuron nAChR", "result": 23, "unit": "fold"}, {"measurement": "Cells in which potentiation of the ACh response was observed", "setting": "locust neuron nAChR", "result": "12 out of 22"}, {"measurement": "pIC50", "setting": "locust neuron nAChR; [1]", "result": 6.36}, {"measurement": "pIC50", "setting": "locust neuron nAChR; [2]", "result": 5.76}, {"measurement": "IC50", "setting": "rat α3β4 nAChRs", "result": "low nanomolar range"}, {"measurement": "Times more potent than PhTX-12", "setting": "human muscle-type nAChRs", "result": "> 10", "unit": "times"}, {"measurement": "Times more potent than PhTX-343", "setting": "human muscle-type nAChRs", "result": "> 100", "unit": "times"}, {"measurement": "IC50", "setting": "rat α4β2 nAChRs", "result": "low nanomolar range"}]}, {"smiles": "CCCC(=O)N[C@@H](CC1CCCCC1)C(=O)NCCCCCCCCCCCCN", "note": "[Cha-PhTX-12]", "values": [{"measurement": "Fold increase in potency vs PhTX-343, 1 s current", "setting": "locust neuron nAChR", "result": 471, "unit": "fold"}, {"measurement": "Fold increase in potency vs PhTX-343, peak current", "setting": "locust neuron nAChR", "result": "> 5000", "unit": "fold"}, {"measurement": "pIC50", "setting": "locust neuron nAChR; at −75 mV (abstract; 1 s current), read-out: IC50", "result": 8.77}, {"measurement": "pIC50", "setting": "locust neuron nAChR; [1]", "result": 8.77}, {"measurement": "pIC50", "setting": "locust neuron nAChR; [2]", "result": 8.12}]}, {"smiles": "CCCC(=O)N[C@@H](Cc1ccc(O)cc1)C(=O)NCCCNCCCCNCCCN", "note": "[PhTX-343, philanthotoxin-343, reference compound]", "values": [{"measurement": "Mean potentiation, % of the ACh control response, 1 s current", "setting": "locust neuron nAChR; [3]", "result": "~300", "unit": "%"}, {"measurement": "Mean potentiation, % of the ACh control response, peak current", "setting": "locust neuron nAChR; [3]", "result": "around 200%"}, {"measurement": "Cells in which potentiation of the ACh response was observed", "setting": "locust neuron nAChR", "result": "8 out of 23"}, {"measurement": "pIC50", "setting": "locust neuron nAChR; [1]", "result": 6.10}, {"measurement": "pIC50", "setting": "locust neuron nAChR; [2]", "result": 4.40}]}]}
